Assays:
[1] = test system: parasympathetic neurons obtained by culturing in the differentiation-inducing medium 3 (NDM+PMA+RA); conditions: nicotine 1 μM; neurons induced in NDM+PMA+RA, 13th to 37th day from start of culturing
Method: Furthermore, response to nicotine stimulation for parasympathetic neurons obtained by culturing in the differentiation-inducing medium 3 (NDM+PMA+RA) was assessed by intracellular calcium imaging. 1 mg/mL Fluo-4 AM (Invitrogen, F14201)/DMSO was directly added to a medium on the differentiation induction culture 24th day at a final concentration of 5 μg/mL. After incubation in an incubator (37° C., 5% CO2) for 30 minutes, the medium was removed and replaced with Ringer's solution (149 mM NaCl, 2.8 mM KCl, 2 mM CaCl2, 1 mM MgCl2, 10 mM HEPES, 10 mM D-(+)-glucose [pH 7.4]), and changes in the intracellular calcium concentrations were measured by detecting changes in the fluorescence intensity. For the measurement, 300 frames were photographed at a frame rate of 2 fps using an Olympus microscope (IX81), EMCCD (Andor iXon), and MetaMorph Software (Molecular Devices). Additionally, nicotine stimulation was performed by adding nicotine to Ringer's solution at a final concentration of 1 μM. ImageJ was used for data analysis after measurement.

[2] = test system: autonomic neural progenitor cells; assay: Induction of autonomic neural progenitor cells to differentiate into parasympathetic neurons, immune cell staining (TH, ChAT, PHOX2B, MAP2); format: cell-based, Human
Method: A 24-well plate coated with poly-L-ornithine and laminin was prepared by the following procedure. The plate was coated for one hour with a PLO solution (20 μg/mL) prepared with DW, washed once with DW, and coated for two hours with a laminin solution (5 μg/mL) prepared with PBS. Subsequently, the N2 medium was supplemented with 10 μM FSK, 10 ng/mL BDNF, 10 ng/mL GDNF, 10 ng/mL NT-3, 10 ng/mL NGF, and 50 μg/mL Ascorbic Acid (all final concentrations) to prepare a neural differentiation medium (NDM).
The following four kinds of differentiation-inducing media were prepared using NDM:
Differentiation-inducing medium 1: NDM+10 ng/mL PMA (final concentration)
Differentiation-inducing medium 2: NDM+1 μM RA (final concentration)
Differentiation-inducing medium 3: NDM+10 ng/mL PMA+1 μM RA (both final concentrations)
Differentiation-inducing medium 4: NDM only (by a known method)
The autonomic neural progenitor cells obtained by the above-described Step 5 were washed once with PBS, followed by addition of TrypLE Express Enzyme (250 μL/well), and cells were exfoliated by incubating the medium for five minutes. 10% FBS-containing DMEM was added to terminate the enzyme reaction, and the cells were collected in a centrifuge tube. After the medium was centrifuged at 200×g for four minutes, the supernatant was removed, cells were suspended with NDM, and the cells were counted. […] The media cultured for at least 20 days from the start of culturing with the differentiation-inducing media 1 to 4 were analyzed by immune staining and intracellular calcium imaging following the procedure described below. […]
The primary antibody solution was removed, and the plate was washed twice with 0.2% Tween 20/PBS, followed by addition of a secondary antibody/Can Get Signal Solution A (1000-fold diluted Alexa Fluro488 or 1000-fold diluted Alexa Fluor555) or 3000-fold diluted Hoechst 33342 solution, and the mixture was allowed to stand for one hour at room temperature. The secondary antibody solution was removed, and the plate was washed twice with 0.2% Tween 20/PBS and then observed under a fluorescence microscope.

[3] = test system: GATA3; conditions: Yamashita et al. 2002; Th2 cell differentiation; cited from earlier work
[4] = differentiation induction 13th to 87th day from start of culturing, 10 ng/mL PMA and/or 1 μM RA in NDM, compared with NDM only (FIG. 2)

| SMILES | response to nicotine stimulation (intracellular calcium, Fluo-4 AM fluorescence) [1] | differentiation induction efficiency ([2]; 13th to 87th day, single additive in NDM, compared with NDM only) | ChAT positive cells (parasympathetic neuron marker) [2, 4] | TH positive cells (sympathetic neuron marker) [2, 4] | expression of transcription factor GATA3 [3] |
| --- | --- | --- | --- | --- | --- |
| CN1CCCC1c1cccnc1 (single isomer, unassigned; (-)) [nicotine, (−)-Nicotine] | strong response |  |  |  |  |
| CCCCCCCCCCCCCC(=O)O[C@@H]1[C@@H](C)[C@@]2(O)[C@@H](C=C(CO)C[C@]3(O)C(=O)C(C)=C[C@@H]23)[C@@H]2C(C)(C)[C@]12OC(C)=O [PMA, Phorbol 12-myristate 13-acetate] |  | reduced | markedly reduced | markedly reduced | enhance |

— patent US11359178B2, “Method for producing parasympathetic neurons” (NATIONAL INSTITUTE OF ADVANCED INDUSTRIAL SCIENCE AND …, priority 2018, dated 2022)
